Read-outs that look alike come from different tables or passages of the source.
How the values were obtained:
[1] = tested on: E. acervulina, E. maxima, and E. tenella; assay: First Study: broiler performance (feed intake, FCR, weight gain, mortality) under coccidia challenge; assay type: in vivo; settings: Cocci Vaccine alone
Protocol: (§1) Testing in all three studies set forth below was undertaken using a high oocyst dose vaccine, Coccivac-B52 (trademark, Intervet Inc.), a product sold by Merck Animal Health. According to the manufacturer, Coccivac-B52 contains E. acervulina, E. maxima, E. mivati, and E. tenella. The vaccine was mixed with water at a dosage of 240 ml of water per 1,000 doses. The vaccine-water combination was placed in a sealed vaccine container and mixed by stirring and inversion of the container. The mixed vaccine-water combination was sprayed onto each chick when one day old in a conventional spray cabinet. It was estimated that each chick ingested an equal number of droplets so as to result in the ingestion of about 240 μL dose per chick.
The rations consisted of non-medicated commercial-type broiler starter, grower, and finisher diets compounded according to NRC guidelines and contained feedstuffs commonly used in the United States. As a common regime rations for some but not necessarily all studies were fed ad libitum from date of chick arrival as follows: Starter—DOT 0 until DOT 14, grower DOT 14 to DOT 28, and finisher from DOT 28 to DOT 42 (study termination).
Diets were fed as crumbles in starter and pellets in grower and finisher. Experimental treatment feeds were prepared from a basal feed formulation. Quantities of all basal feed and test articles included in treatment group batches were documented and included with source data files. Treatment feeds were mixed prior to pelleting to assure uniform distribution of respective test articles.
Fifteen hundred birds (1,500) were assigned to six (6) treatment groups with ten (10) replicate pens per treatment and 25 birds per pen. The study began when birds were placed (day-of-hatch; DOT 0), at which time birds were allocated to experimental pens. Only healthy birds were selected. On DOT 0, group body weights were recorded by pen. No birds were replaced during the course of the study.
Birds received treatment-appropriate feed from day 0 to day 42. On day 14, remaining starter feed was removed, weighed, and replaced with grower feed to day 28. On day 28, the remaining grower feed was removed, weighed back, and replaced with finisher feed to day 42.
On Day 42, the trial was terminated.

[2] = tested on: E. acervulina, E. maxima, and E. tenella; assay: First Study: average coccidia lesion score; assay type: in vivo, broiler; settings: DOT 26, Johnson and Reid 0 to 4 score, Salinomycin 60 gms/ton No Vaccine, Cocci Vaccine alone
[3] = tested on: E. acervulina, E. maxima, and E. tenella; assay: First Study: total oocysts per gram of feces; assay type: in vivo, broiler; settings: feces on DOT 26, Salinomycin 60 gms/ton No Vaccine, Cocci Vaccine alone
[4] = tested on: E. acervuline, E. maxima, and E. tenella; assay: Third Study: broiler performance (feed intake, FCR, weight gain, mortality) under coccidia challenge; assay type: in vivo, male broiler chicks; settings: Disclosed compound 1.0/1.0/0.5 lb/ton with Vacc
Protocol: as §1
Rations consisted of non-medicated commercial-type broiler starter, grower, and finisher diets compounded according to NRC guidelines and contain feedstuffs commonly used in the United States. Day-of-hatch male broiler chicks were utilized in the study. Rations were fed ad libitum from date of chick arrival as follows: Starter—day 0 until day 14, grower day 14 to day 28, and finisher from day 28 to day 42 (the end date of the study). Coccidia vaccination for treatments 4 and 5 only.
One thousand five hundred birds (1,500) were randomly assigned to 5 treatment groups with 12 replicate pens per treatment and 25 birds per pen. The study began when birds were placed (day-of-hatch; DAY 0), at which time birds were allocated to experimental pens. On day 0, group body weights were recorded by pen. No birds were replaced during the course of the study.
All birds were weighed by pen on days 0, 14, 28, and 42. Feed added to each pen's feeder was weighed at the beginning of each formulation period on day 0 (starter), day 14 (grower), and day 28 (finisher). Feed was distributed as needed to feeders from pre-weighed bags assigned to each pen throughout each period. Feed remaining in feeders was weighed and disposed of on days 14, 28, and 42. The trial was terminated on day 42.

[5] = tested on: E. acervulina, E. maxima, and E. tenella; assay: Third Study: average coccidia lesion score; assay type: in vivo, male broiler chicks; settings: Day 26, 0 to 4 score, Salinomycin 60 g/ton No Vacc, Disclosed compound 1.0/1.0/0.5 lb/ton with Vacc
[6] = tested on: E. acervulina, E. maxima, and E. tenella; assay: Third Study: total oocysts per gram of feces; assay type: in vivo, male broiler chicks
E. acervulina [7] = settings: First Study; DOT 26; Johnson and Reid 0 to 4 score; Salinomycin 60 gms/ton No Vaccine; Cocci Vaccine alone
E. maxima [8] = settings: First Study; DOT 26; Johnson and Reid 0 to 4 score; Salinomycin 60 gms/ton No Vaccine; Cocci Vaccine alone
E. tenella [9] = settings: First Study; DOT 26; Johnson and Reid 0 to 4 score; Salinomycin 60 gms/ton No Vaccine; Cocci Vaccine alone
E. acervulina [10] = settings: First Study; feces on DOT 26; Salinomycin 60 gms/ton No Vaccine; Cocci Vaccine alone
E. maxima [11] = settings: First Study; feces on DOT 26; Salinomycin 60 gms/ton No Vaccine; Cocci Vaccine alone
E. tenella [12] = settings: First Study; feces on DOT 26; Salinomycin 60 gms/ton No Vaccine; Cocci Vaccine alone
E. acervulina [13] = settings: Third Study; Day 26; 0 to 4 score; Salinomycin 60 g/ton No Vacc; Disclosed compound 1.0/1.0/0.5 lb/ton with Vacc
E. maxima [14] = settings: Third Study; Day 26; 0 to 4 score; Salinomycin 60 g/ton No Vacc; Disclosed compound 1.0/1.0/0.5 lb/ton with Vacc
E. tenella [15] = settings: Third Study; Day 26; 0 to 4 score; Salinomycin 60 g/ton No Vacc; Disclosed compound 1.0/1.0/0.5 lb/ton with Vacc
E. acervulina [16] = settings: Third Study; feces Day 26; Salinomycin 60 g/ton No Vacc; Disclosed compound 1.0/1.0/0.5 lb/ton with Vacc
E. maxima [17] = settings: Third Study; feces Day 26; Salinomycin 60 g/ton No Vacc; Disclosed compound 1.0/1.0/0.5 lb/ton with Vacc
E. tenella [18] = settings: Third Study; feces Day 26; Salinomycin 60 g/ton No Vacc; Disclosed compound 1.0/1.0/0.5 lb/ton with Vacc
[19] = tested on: E. acervuline, E. maxima, and E. tenella; assay: Third Study: broiler performance (feed intake, FCR, weight gain, mortality) under coccidia challenge; assay type: in vivo, male broiler chicks; settings: Day 0 to 41, challenge day 21, Salinomycin 60 g/ton No Vacc, Disclosed compound 1.0/1.0/0.5 lb/ton with Vacc
[20] = Day 0 to 14, cocci challenge Day 20, Salinomycin 60 gms/ton No Vaccine
[21] = Day 0 to 28, cocci challenge Day 20, Salinomycin 60 gms/ton No Vaccine
[22] = Day 0 to 42, cocci challenge Day 20, Salinomycin 60 gms/ton No Vaccine
[23] = Day 0 to 14, challenge day 21, Salinomycin 60 g/ton No Vacc
[24] = Day 0 to 28, challenge day 21, Salinomycin 60 g/ton No Vacc

SMILES: CC[C@@H](C(=O)[C@@H](C)[C@@H](O)[C@H](C)[C@@H]1O[C@@H]([C@@H](CC)C(=O)O)CC[C@@H]1C)[C@H]1O[C@]2(C=C[C@@H](O)[C@]3(CC[C@@](C)([C@H]4CC[C@](O)(CC)[C@H](C)O4)O3)O2)[C@H](C)C[C@@H]1C [Salinomycin]
- Adjusted FCR (feed conversion ratio adjusted for mortality) [1, 20]: 1.58A
- Feed Intake [1, 20]: 11.48A
- Non-Adjusted FCR [1, 20]: 1.60A
- Weight Gain [1, 20]: 0.31B kg
- Adjusted FCR (feed conversion ratio adjusted for mortality) [1, 21]: 1.64B
- Feed Intake [1, 21]: 38.69C
- Non-Adjusted FCR [1, 21]: 1.78AB
- Weight Gain [1, 21]: 1.01B kg
- Adjusted FCR (feed conversion ratio adjusted for mortality) [1, 22]: 1.67B
- Cocci Percent Mortality [1, 22]: 8.40A Percent
- Feed Intake [1, 22]: 80.16B
- Non-Adjusted FCR [1, 22]: 1.81AB
- Percent Mortality [1, 22]: 18.00A Percent
- Weight Gain [1, 22]: 2.39AB kg
- Mean Coccidia Lesion Score, Average [2]: 1.97BC
- Total OPG [3]: 52866AB oocysts per gram
- Adjusted FCR (FCR adjusted for mortality) [4, 23]: 1.41A
- Feed Intake [4, 23]: 12.09A
- Non-Adjusted FCR [4, 23]: 1.42A
- Weight Gain [4, 23]: 0.34B kg
- Adjusted FCR (FCR adjusted for mortality) [4, 24]: 1.50AB
- Feed Intake [4, 24]: 44.75B
- Non-Adjusted FCR [4, 24]: 1.51B
- Weight Gain [4, 24]: 1.20B kg
- Mean Coccidia Lesion Score, Average [5]: 2.04AB
- count of oocysts among groups ([6]; day of feces collection (day 27)): highest count of oocysts
- Total OPG ([6]; feces Day 26, Salinomycin 60 g/ton No Vacc, Disclosed compound 1.0/1.0/0.5 lb/ton with Vacc): 55,117A oocysts per gram
- Mean Coccidia Lesion Score, E. acervulina (E. acervulina [7]): 1.80BC
- Mean Coccidia Lesion Score, E. maxima (E. maxima [8]): 1.93A
- Mean Coccidia Lesion Score, E. tenella (E. tenella [9]): 2.17AB
- OPG A (E. acervulina [10]): 49418AB oocysts per gram
- OPG M (E. maxima [11]): 2615A oocysts per gram
- OPG T (E. tenella [12]): 834A oocysts per gram
- Mean Coccidia Lesion Score, E. acervulina (E. acervulina [13]): 2.31A
- Mean Coccidia Lesion Score, E. maxima (E. maxima [14]): 1.78AB
- Mean Coccidia Lesion Score, E. tenella (E. tenella [15]): 2.03AB
- OPG A (E. acervulina [16]): 23,995A oocysts per gram
- OPG M (E. maxima [17]): 9,666A oocysts per gram
- OPG T (E. tenella [18]): 21,455A oocysts per gram
- Adjusted FCR (FCR adjusted for mortality) [19]: 1.60AB
- Cocci Percent Mortality [19]: 0.00A Percent
- Feed Intake [19]: 92.63B
- Non-Adjusted FCR [19]: 1.61BC
- Percent Mortality [19]: 1.33B Percent
- Weight Gain [19]: 2.49BC kg
- Percent Mortality ([19]; listed as salinomycin): 1.33%

Reference: patent US12599657B2 (priority 2020, dated 2026)
